The results in this text go back to US20210355107A1, “MULTI-SUBSTITUTED PYRIDONE DERIVATIVES AND MEDICAL USE THEREOF” (Beijing Yuezhikangtai Biomedicines Co., Ltd., priority 2018, published 2021).

The structures appear in SMILES notation.

One test deals with T1, Ba/F3 Axl cells (Homo sapiens, UniProt P30530).
T1 sequence (P30530 1-894): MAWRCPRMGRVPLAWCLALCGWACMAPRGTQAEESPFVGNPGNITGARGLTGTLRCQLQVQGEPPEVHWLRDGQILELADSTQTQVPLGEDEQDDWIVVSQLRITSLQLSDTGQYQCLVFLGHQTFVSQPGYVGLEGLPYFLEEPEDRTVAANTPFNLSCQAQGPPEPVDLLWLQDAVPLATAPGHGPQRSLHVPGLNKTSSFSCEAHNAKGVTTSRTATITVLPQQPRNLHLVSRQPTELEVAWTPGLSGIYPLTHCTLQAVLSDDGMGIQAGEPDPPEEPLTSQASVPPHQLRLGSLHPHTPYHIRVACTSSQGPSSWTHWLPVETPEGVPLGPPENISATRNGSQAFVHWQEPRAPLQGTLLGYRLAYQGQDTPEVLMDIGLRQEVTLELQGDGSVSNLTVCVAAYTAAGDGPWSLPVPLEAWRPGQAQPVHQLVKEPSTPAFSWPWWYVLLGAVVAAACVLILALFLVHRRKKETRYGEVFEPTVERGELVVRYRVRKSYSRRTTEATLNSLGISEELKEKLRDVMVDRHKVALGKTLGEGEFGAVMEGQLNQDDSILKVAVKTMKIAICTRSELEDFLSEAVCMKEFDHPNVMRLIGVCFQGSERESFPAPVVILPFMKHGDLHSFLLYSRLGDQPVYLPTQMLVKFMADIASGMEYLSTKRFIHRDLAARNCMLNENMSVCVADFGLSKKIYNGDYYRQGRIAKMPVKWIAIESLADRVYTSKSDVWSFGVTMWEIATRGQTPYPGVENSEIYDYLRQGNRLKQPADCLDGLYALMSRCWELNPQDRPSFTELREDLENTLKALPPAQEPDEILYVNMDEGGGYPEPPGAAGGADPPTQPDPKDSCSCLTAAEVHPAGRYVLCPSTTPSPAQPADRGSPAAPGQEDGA
As to the kind of experiment: Ba/F3 Axl cell proliferation, CellTiter-Glo Luminescent Cell Viability Assay. The format is cell-based. Conditions: read-out: IC50 (nM) against Ba/F3 Axl cells, 100 ng/mL rhGas6, 72 h incubation. As to the method: Test method: the inhibitory activity of the compounds against Ba/F3 Axl cell proliferation was evaluated using CellTiter-Glo® Luminescent Cell Viability Assay Kit (Promega).
Test procedures: when thawing Ba/F3 Axl cells, the cell cryopreservation tube was shaken rapidly in a water bath at 37° C. to thaw the cells in 1 min. The cell suspension after thawing was mixed with RPMI1640 culture medium containing 10% FBS and centrifuged for 5 min at 1000 rpm, and the supernatant was discarded. The cell pellet was suspended in 5 mL of complete culture medium. […] Cell passage was performed at a cell density of 2×10^6 viable cells/mL. When the cells were passaged, the original cell suspension was directly made uniform by pipetting. 1/10 (namely 0.5 mL) of the cell suspension was kept, added with 4.5 mL of new complete culture medium and then made uniform by pipetting. The cell culture flask was then placed in a cell incubator for further culturing. Cell plating was performed when the cell confluence reached 2×10^6 viable cells/mL again. With reference to the method for cell passage, 1/10 (namely 0.5 mL) of the cell suspension was kept for further culturing when the cells were plated, and the remaining cell suspension was placed in a 15 mL centrifuge tube. The supernatant was discarded after centrifugation, and 5 mL of complete culture medium was used to resuspend the cells. […] A control group that contains no cell or compound but only complete culture medium and a control group that contains no compound but cells were set. The cell plates were incubated overnight in a cell incubator. […] The cell plates were then incubated in the cell incubator for 72 h. […] The cell plate was left to stand at room temperature for 20 min to stabilize luminescence signals, and the luminescence value of each well was scanned by a Spectramax M3 multi-functional microplate reader (Molecular Devices) at full wavelength.
Test samples: example compounds of the present invention and bemcentinib (positive control compound).
Data analysis: cell viability was calculated for compounds at various concentrations using the following formula:
Cell viability(%)=(Lumtest compound−Lumculture solution control)/(Lumcell control−Lumculture solution control)×100%,
where Lum refers to the luminescence value of each well of the test compound plate read by the multi-functional microplate reader.
The data were analyzed using GraphPad Prism 7.0 software, fitted with nonlinear S-curve regression to give dose-response curves, and IC50 values were calculated therefrom.

Another test has as its target T2, kinase Axl (Homo sapiens, UniProt P30530).
T2 construct: purchased Carna 08-107
T2 sequence (P30530 473-894 limits assumed): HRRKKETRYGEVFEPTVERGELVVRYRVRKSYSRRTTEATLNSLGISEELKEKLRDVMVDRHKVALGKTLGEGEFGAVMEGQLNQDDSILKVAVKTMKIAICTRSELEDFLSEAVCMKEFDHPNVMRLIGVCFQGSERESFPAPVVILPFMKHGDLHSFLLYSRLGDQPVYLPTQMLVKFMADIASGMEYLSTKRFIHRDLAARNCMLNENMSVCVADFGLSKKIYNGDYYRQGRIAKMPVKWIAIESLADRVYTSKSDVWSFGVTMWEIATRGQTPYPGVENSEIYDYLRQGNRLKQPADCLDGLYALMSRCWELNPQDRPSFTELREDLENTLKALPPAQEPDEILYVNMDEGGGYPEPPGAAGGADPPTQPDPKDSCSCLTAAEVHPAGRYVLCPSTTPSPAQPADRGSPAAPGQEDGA
As to the kind of experiment: Mobility shift assay, inhibitory activity against kinase Axl. The format is biochemical. To be noted: ATP at Km (81 μM), average of two independent experiments. Here is the method:
(§1) In this test, mobility shift assay was used to test the inhibitory activity of compounds when ATP concentrations correspond to the Km of the kinases.
(§2) The concentration of test compound was 10-fold diluted from an initial concentration of 10 μM. The test result (IC50) was the average of two independent experiments.
(§3) For example, a compound at an initial concentration of 10 μM was adjusted to 500 μM with 100% DMSO, then serially diluted for 10 concentrations, and then subjected to 10-fold dilution with the buffer to prepare a diluted compound intermediate containing 10% DMSO, 5 μL of which was transferred to the 384-well plate.
(§4) 10 μL of the two enzyme solutions each was added to the 384-well plate and co-incubated with the compound for 10-15 min at room temperature.
(§5) 10 μL of the diluted substrate was added to the 384-well plate to initiate the reaction, which lasts for 1 h at 28° C.
(§6) 5) The conversion rate was read by Caliper Reader (Perkin Elmer) and the inhibition rate was calculated as the average of two tests.
(§7) 6) IC50 values were fitted with XL-fit software.

Another test concerns the target T3, tyrosine kinase Tyro3 (Homo sapiens, UniProt Q06418).
T3 construct: purchased Carna 08-109
T3 sequence (Q06418 453-890 limits assumed): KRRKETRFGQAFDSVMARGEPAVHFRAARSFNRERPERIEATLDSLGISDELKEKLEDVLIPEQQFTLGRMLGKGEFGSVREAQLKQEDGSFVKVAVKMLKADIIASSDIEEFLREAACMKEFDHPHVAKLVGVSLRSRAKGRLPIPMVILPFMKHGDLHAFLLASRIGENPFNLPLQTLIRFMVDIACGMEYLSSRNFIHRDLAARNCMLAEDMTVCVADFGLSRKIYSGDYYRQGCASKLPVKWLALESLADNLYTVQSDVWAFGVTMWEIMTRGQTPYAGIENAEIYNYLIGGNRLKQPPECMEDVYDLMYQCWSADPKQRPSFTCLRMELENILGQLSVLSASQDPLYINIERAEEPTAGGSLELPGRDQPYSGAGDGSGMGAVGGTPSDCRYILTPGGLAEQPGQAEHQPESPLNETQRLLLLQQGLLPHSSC
As to the kind of experiment: HTRF assay, inhibitory activity against tyrosine kinase Tyro3. It is filed as biochemical. Conditions: ATP at Km (50 μM), two duplicate wells. Here is the method:
(§8) Test Example 2: Evaluation of Inhibitory Activity (IC50) of Compounds disclosed herein against Tyrosine Kinases Mer and Tyro3
(§9) In this test, HTRF method was used to test the inhibitory activity of compounds when ATP concentrations correspond to the Km of the kinases. The control substance was RXDX-106. The concentration of test compound was 3-fold diluted from an initial concentration of 10 μM, and two duplicate wells were set.
(§10) Kinase Mer (Carna, Cat. No. 08-108, Lot. No. 14CBS-0421H); Tyro3 (Carna, Cat. No. 08-109, Lot. No. 08CBS-1186H); HTRF kinase-TK kit (Cisbio, Cat. No. 62TK0PEC), the kit comprising: biotin-TK substrate lyophilized powder (Cisbio, Cat. No. 61TK0BLC, Lot. No. 07A), streptavidin-XL665 (Cisbio, Cat. No. 610SAXLG, Lot. No. 126A), TK antibody-cryptate (Cisbio, Cat. No. 610SAXLG, Lot. No. 04A), and detection buffer (including EDTA) (Cisbio, Cat. No. 62TK0PEC, Lot. No. 12A); ATP (Sigma, Cat. No. A7699-5G, CAS No. 34369-07-8, Lot. No. SLBQ6014V); DMSO (Sigma, Cat. No. D5879-1L, Lot. No. SHBH9944); HEPES (Sigma, Cat. No. V900477-500G, CAS No. 7365-45-9, Lot. No. WXBC4716V); MgCl2 (Sigma, Cat. No. 208337-1KG, Lot. No. MKBX9508V); EGTA (Sigma, Cat. No. E3889-100g, CAS 67-42-5, […], Lot. No. SLBG8546V); NP-40 (Beijing Dingguo, Cat. No. DH218, Lot. No. 36R00160); DTT (Sigma, Cat. No. D0632-25g, CAS No. 3483-12-3, Lot. No. SLBF3964V); compound plate (Labcyte, Cat. No. LP0200, Lot. No. 0006386836); assay plate (Greiner, Cat. No. 784075, Lot. No. E16123HM); control substance RXDX-106 (prepared according to the method disclosed in patent WO2013074633).
(§11) 1) Preparation of a buffer: 50 mM HEPES, 10 mM MgCl2, 1 mM EGTA, 0.01% NP-40, 2 mM DTT.
(§12) 2) Preparation of control substance and test samples: RXDX-106 and the compounds disclosed herein were each dissolved in DMSO to 10 mM and then diluted to 1 mM or an appropriate concentration with DMSO, and then serial double dilution was performed using BRAVO (Agilent). 100 nL of each was transferred from a compound plate (Labcyte-LP0200) to an assay plate (Greiner-784075) using ECHO 555 (Labcyte). The final concentration of DMSO was 1%.
(§13) 3) Mer and Tyro3 were each diluted to 0.5 nM and 1.2 nM with the detection buffer (Cisbio, Cat. No. 62TK0PEC, Lot. No. 12A). 5 μL of each was added to a 384-well plate and incubated with the compounds disclosed herein for 30 min at 22-25° C. Final concentrations of Mer and Tyro3 were 0.25 nM and 0.6 nM, respectively.
(§14) 4) Biotin-TK substrate and ATP were each diluted to a concentration twice the final concentration with 1× kinase buffer made up of HEPES, NaN3, BSA and orthovanadate. 5 μL of the mixture of substrate and ATP was added to the 384-well plate to initiate the reaction, which lasts for 1 h at 22-25° C.
(§15) 5) Streptavidin-XL665 and TK antibody-cryptate were diluted to 250 nM and 0.5 nM, respectively, with the detection buffer. […] of each of the two solutions was added to the 384-well plate to initiate the reaction, which lasts for 1 h at 22-25° C. The final concentrations of streptavidin-XL665 and TK antibody-cryptate were 125 nM and 0.25 nM, respectively.
(§16) 6) The fluorescence intensities at 665 nm and 615 nm were read with an Envision Reader (PerkinElmer) .
(§17) 7) IC50 values of the compounds were fitted with XL-fit software.

The next test has as its target T4, kinase c-MET (Homo sapiens, UniProt P08581).
T4 construct: purchased Carna 08-151
As to the kind of experiment: Mobility shift assay, inhibitory activity against kinase c-MET. To be noted: ATP at Km (35 μM), average of two independent experiments. It is filed as biochemical. As to the method: as §1, §2, §3, §4, §5, §6, §7

A further test has as its target T5, tyrosine kinase Mer (Homo sapiens, UniProt Q12866).
T5 construct: purchased Carna 08-108
T5 sequence (Q12866 528-999 limits assumed): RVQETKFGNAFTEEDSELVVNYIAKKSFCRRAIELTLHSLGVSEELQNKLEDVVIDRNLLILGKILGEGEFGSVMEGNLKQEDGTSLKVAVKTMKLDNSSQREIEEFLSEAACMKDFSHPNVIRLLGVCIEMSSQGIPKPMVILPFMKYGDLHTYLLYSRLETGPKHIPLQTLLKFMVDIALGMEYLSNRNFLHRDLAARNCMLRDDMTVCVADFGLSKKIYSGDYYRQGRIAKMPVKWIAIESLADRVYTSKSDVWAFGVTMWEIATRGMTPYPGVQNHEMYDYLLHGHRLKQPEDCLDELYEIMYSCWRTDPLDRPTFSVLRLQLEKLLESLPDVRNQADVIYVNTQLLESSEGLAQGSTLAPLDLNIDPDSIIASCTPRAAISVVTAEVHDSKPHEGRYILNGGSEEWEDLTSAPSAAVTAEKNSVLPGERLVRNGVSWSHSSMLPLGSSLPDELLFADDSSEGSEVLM
As to the kind of experiment: HTRF assay, inhibitory activity against tyrosine kinase Mer. The format is biochemical. To be noted: ATP at Km (30 μM), two duplicate wells. As to the method:
as §8, §9, §10, §11, §12, §13, §14, §15, §16, §17
(In general: In TR-FRET formats the signal depends on donor and acceptor labels being close together.)

T4 sequence (P08581 956-1390 limits assumed): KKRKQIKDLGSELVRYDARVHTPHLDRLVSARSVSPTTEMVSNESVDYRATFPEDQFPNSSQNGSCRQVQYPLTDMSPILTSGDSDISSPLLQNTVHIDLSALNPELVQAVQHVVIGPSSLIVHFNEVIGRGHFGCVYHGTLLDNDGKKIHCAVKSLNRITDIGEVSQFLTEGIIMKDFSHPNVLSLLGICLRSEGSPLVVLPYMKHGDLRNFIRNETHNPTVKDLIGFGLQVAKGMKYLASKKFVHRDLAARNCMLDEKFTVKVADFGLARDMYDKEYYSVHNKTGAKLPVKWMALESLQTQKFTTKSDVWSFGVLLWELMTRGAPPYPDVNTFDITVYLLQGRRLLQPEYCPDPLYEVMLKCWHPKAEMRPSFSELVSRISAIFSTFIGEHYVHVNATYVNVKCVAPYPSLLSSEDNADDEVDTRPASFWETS

`Nc1nc(Nc2ccc3c(c2)CC[C@@H](N2CCCC2)CC3)nn1-c1cc2c(nn1)-c1ccccc1CCC2` [Bemcentinib, bemcentinib, reference compound]: the GI50 at Ba/F3 Axl cells is 26.9 nM.

What is called IC50 is the concentration that gives 50% inhibition. Consider `COc1ccc(-c2cnc(N)c(-c3ccc(NC(=O)c4cn(C(C)C)c(C#N)c(-c5ccc(F)cc5)c4=O)cc3F)c2)cc1OC` [Example 1, N-(4-(2-amino-5-(3,4-dimethoxyphenyl)pyridin-3-yl)-3-fluoro-phenyl)-6-cyano-5-(4-fluorophenyl)-1-isopropyl-4-oxo-1,4-dihydropyridine-3-carboxamide], for which the IC50 was found to be 13 nM at kinase Axl, 7.51 nM at tyrosine kinase Tyro3, 133 nM on kinase c-MET and 4.9 nM on tyrosine kinase Mer.

On to `CCn1cc(-c2cnc(N)c(-c3ccc(NC(=O)c4cn(C5CCC5)c(C#N)c(-c5ccc(F)cc5)c4=O)cc3F)c2)cn1` [Example 9, N-(4-(2-amino-5-(1-ethyl-1H-pyrazol-4-yl)pyridin-3-yl)-3-fluoro-phenyl)-6-cyano-5-(4-fluorophenyl)-1-cyclobutyl-4-oxo-1,4-dihydropyridine-3-carboxamide], for which the IC50 on kinase Axl is 4.6 nM; against tyrosine kinase Tyro3 it was 3 nM; at kinase c-MET, 70 nM; against tyrosine kinase Mer it was 1.3 nM.
